From PMC12663734, “Sulfonamine-containing aurone derivatives act as inhibitors of intercellular movement of potato virus Y” (iScience, 2025)
Values after ≈ are worked out from the molar mass of the structure shown.

Columns and labels:
PVY [1] = experiment: Anti-PVY inactivating activity, half-leaf method; conditions: Potato virus Y, in Chenopodium amaranticolor
Method: (§1) Owing to its non-host resistance to PVY, Chenopodium amaranticolor develops a hypersensitive response (HR) within 48–72 hours post-inoculation, producing sharply delimited chlorotic or necrotic local lesions on the inoculated leaves. The number of lesions correlates linearly and positively with virus titre, thereby serving as a quantitative indicator of viral virulence and of the inactivating efficacy of test compounds. The PVY viral extract was rubbed onto the surface of Nicotiana tabacum K326 leaves. After the characteristic symptoms of leaf wrinkling and inward curling appeared, the leaves were harvested and stored at -80°C, then purified according to previously reported methods.[50]^,[51]^,[52] Host leaves were ground to a fine powder in liquid nitrogen, followed by homogenization on ice in 0.5 M phosphate buffer. An equal volume of chloroform:n-butanol (1:1, v/v) corresponding to 10% of the total buffer volume was added, and the mixture was further homogenized on ice. After centrifugation at 10,000g for 20 minutes (4°C), the supernatant was collected as the crude PVY extract. Using 4–5-leaf-stage Chenopodium amaranticolor maintained under optimal growth conditions, a bioassay was conducted with two plants per treatment to systematically evaluate the curative, protective, and inactivating efficacy of the target compound against PVY.[53] […] Each compound was evaluated in three replicates, and the average value was calculated.
Two different dilutions of the virus solution (600-fold and 1200-fold) were prepared, along with a 1000 μg/mL drug solution. The drug solution was mixed with the 600-fold diluted virus solution on ice and incubated for 30 minutes. During the incubation period, the left side of the leaves was treated with a 1200-fold diluted virus solution. After the incubation was completed, the mixed system of drug and virus is inoculated on the right side of the leaf. After waiting for the infection to be completed, the carborundum on the leaf surface was washed off with running water, and the plants were then cultivated in a greenhouse. The number of dead spots on the leaves was counted after approximately 5 days.

PVY [2] = experiment: Anti-PVY protective activity, half-leaf method; conditions: Potato virus Y, in Chenopodium amaranticolor, 120 h, read-out: Protective effect (%)
Method: as §1
In contrast to the antiviral therapeutic activity, the leaves were first treated with the drug solution. A 500 μg/mL drug solution was applied to the right side of the leaves, with the left side serving as a control and treated with a 1% Tween 80 solution. After the leaves had dried under natural conditions, they were placed in a greenhouse for 24 hours before inoculation by rubbing with carborundum, following the same procedures as those for curative activity. After treatment, the plants were maintained in a greenhouse, and the number of local lesions on the inoculated leaves was recorded approximately 5 days.

PVY CP^P154A = molecular target: T1, PVY CP^P154A (Potato virus Y, UniProt P18247, P2950A); experiment: MST binding to mutant PVY CP^P154A
T1 construct: 6xHis tag (within the N-terminal pET-32a(+) fusion leader; the Trx and S-tag parts are inferred from the vector and the ~50 kDa band) (N, cleaved yes); made in house; host or cells: Escherichia coli BL21 (DE3) pLysS
T1 sequence (P18247 2797-3063 P2950A): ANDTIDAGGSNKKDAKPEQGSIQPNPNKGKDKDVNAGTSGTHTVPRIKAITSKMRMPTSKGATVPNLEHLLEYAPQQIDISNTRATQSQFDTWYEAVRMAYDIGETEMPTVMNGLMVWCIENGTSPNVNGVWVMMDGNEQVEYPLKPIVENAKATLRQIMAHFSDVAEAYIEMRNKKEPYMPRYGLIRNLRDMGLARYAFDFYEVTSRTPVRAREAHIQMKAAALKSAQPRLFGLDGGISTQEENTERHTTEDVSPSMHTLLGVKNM

PVY [3] = experiment: Anti-PVY curative activity, half-leaf method; conditions: Potato virus Y, in Chenopodium amaranticolor, 120 h, read-out: Curative effect (%)
Method: as §1
Chenopodium amaranticolor was selected as the dead spot host. Excess leaves were first trimmed off, and a uniform layer of carborundum was applied to the leaf surface. The leaves were then inoculated by rubbing with a 1200-fold diluted virus solution. After more than an hour, the carborundum on the leaf surface was washed off with running water, and a 500 μg/mL drug solution was prepared. […] The treated plants were cultivated in a greenhouse for observation, and the number of dead spots on the leaves was counted after approximately 5 days.

PVY-GFP = experiment: Systemic infection of PVY-GFP in N. benthamiana (GFP fluorescence, RT-qPCR); assay type: in vivo, potato virus Y; conditions: 500 μg/mL, seven dpi
Method: To investigate the effect of compound D13 on PVY system infection, we inoculated Nicotiana benthamiana (N. benthamiana) leaves with Agrobacterium carrying the wild-type PVY-GFP. After 24 h, the infiltrated leaves were treated with dimethyl sulfoxide (DMSO) as the negative control group and 500 μg/mL D13 as the treatment group. […] To further confirm reproducibility, an additional independent biological replicate (Figure S4) was uploaded, and the observed trend is consistent with the primary dataset.
Wild-type or mutant viral plasmids were introduced into agrobacterium tumefaciens strain GV3101. Bacterial cultures were grown overnight at 28°C with shaking at 220 rpm, harvested by centrifugation at 8 minutes when OD600 reached 0.6–0.8, and the supernatant was discarded. […] At 7 dpi, GFP fluorescence in leaves was visualized and photographed under 365 nm excitation using a LUYOR handheld UV lamp (LUYOR-3415RG, Luyor Instrument, Shanghai, China). […]
The samples of N. benthamiana infected with Agrobacterium were taken out from the -80°C freezer, small steel beads were added, and they were ground into fine powder with liquid nitrogen to ensure that the cells were completely broken and the nucleic acid components in the cells were released. […] The primers used is recorded in Supporting Information.

PVY CP = molecular target: T2, PVY CP (Potato virus Y, UniProt P18247); experiment: biochemical; assay type: binding
T2 construct: 6xHis tag (within the N-terminal pET-32a(+) fusion leader; the Trx and S-tag parts are inferred from the vector and the ~50 kDa band) (N, cleaved yes); made in house; host or cells: Escherichia coli BL21 (DE3) pLysS
T2 sequence (P18247 2797-3063): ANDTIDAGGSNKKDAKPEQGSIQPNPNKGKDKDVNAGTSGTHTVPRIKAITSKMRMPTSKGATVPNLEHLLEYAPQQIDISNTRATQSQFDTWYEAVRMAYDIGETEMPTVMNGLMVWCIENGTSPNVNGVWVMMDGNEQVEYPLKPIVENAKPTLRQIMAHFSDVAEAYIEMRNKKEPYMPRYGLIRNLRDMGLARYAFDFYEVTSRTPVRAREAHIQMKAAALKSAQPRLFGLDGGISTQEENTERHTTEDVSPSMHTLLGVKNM

## COc1ccc(/C=C2\Oc3cc(OCC(=O)NS(=O)(=O)c4ccc(Br)cc4)ccc3C2=O)cc1 [D13, (Z)-N-((4-bromophenyl)sulfonyl)-2-((2-(4-methoxybenzylidene)-3-oxo-2,3-dihydrobenzofuran-6-yl)oxy)acetamide]
PVY [1]; 120 h, read-out: Inactivating effect (%), 500 μg/mL, host Chenopodium amaranticolor, average of three replicates
  pest or weed control at 500 µg/mL: 60 to 80%
PVY [1]; read-out: Inactivating effect EC50
  EC50: 79.5 ± 3.3 µg/mL (≈ 146 µM)
PVY [2]
  pest or weed control at 500 µg/mL: 47.7 ± 1.4%
PVY CP^P154A
  Kd: 284 µM
PVY [3]
  pest or weed control at 500 µg/mL: 53.2 ± 1.6%
PVY-GFP; RT-qPCR
  accumulation level of PVY RNA in systemic leaves vs DMSO control (100%): 39.8%
PVY-GFP; UV illumination
  green fluorescence in stems and young top leaves: almost unobservable
PVY CP
  Kd: 16 µM
